According to ChEMBL document CHEMBL5528063, “Antitrypanosomal Chloronitrobenzamides” (J Med Chem, 2024):
pEC50: −log10 of the molar value. The source made the active and inactive calls. The calls are words filed in the database; no cut-off is given here.

Tests used:
[1] = tested on: Trypanosoma brucei brucei; test: Antitrypanosomal activity against Trypanosoma brucei brucei 427 assessed as inhibition of parasite proliferation incubated for 48 hrs by CellTiter-Glo luminescent assay; type: functional, organism-based; conditions: Trypanosoma brucei, 427, 48 h
[2] = Cytotoxicity against human BJ cells assessed as inhibition of cell growth incubated for 72 hrs by CellTiter-Glo luminescence assay; type: toxicity, cell-based
[3] = Metabolic stability in […] mouse liver microsomes assessed as half-life at 20 uM measured after 2 hrs by UPLC-MS analysis; type: ADME, Microsome
[4] = Aqueous solubility of compound in 1-propanol at pH 7.4 incubated for 18 hrs by UV spectrum analysis; type: physicochemical; conditions: 1-propanol (aqueous, pH 7.4), pH 7.4
[5] = Metabolic stability in […] mouse liver microsomes assessed as intrinsic clearance at 20 uM measured after 2 hrs by UPLC-MS analysis; type: ADME, Microsome; conditions: read-out: CLH
[6] = Metabolic stability in rat liver microsomes assessed as half-life at 20 uM; type: ADME, Microsome
[7] = Metabolic stability in rat liver microsomes assessed as intrinsic clearance at 20 uM; type: ADME, Microsome; conditions: read-out: CLH
[8] = Metabolic stability in human liver microsomes assessed as half-life at 20 uM incubated for 2 hrs by UPLC-MS analysis; type: ADME, Microsome
[9] = Metabolic stability in human liver microsomes assessed as intrinsic clearance at 20 uM incubated for 2 hrs by UPLC-MS analysis; type: ADME, Microsome; conditions: read-out: CLH
Trypanosoma congolense [10] = test: Antitrypanosomal activity against Trypanosoma congolense IL3000 assessed as inhibition of parasite proliferation incubated for 69 hrs by resazurin dye based microplate fluorometric analysis; type: functional, organism-based; conditions: IL3000, 69 h
Trypanosoma vivax = test: Antitrypanosomal activity against Trypanosoma vivax STIB 719/ ILRAD 560 assessed as inhibition of parasite proliferation incubated for 45 hrs by resazurin dye based microplate fluorometric analysis; type: functional, organism-based; conditions: STIB 719/ ILRAD 560, 45 h
Raji = test: Cytotoxicity against human Raji cells assessed as inhibition of cell growth incubated for 72 hrs by CellTiter-Glo luminescence assay; type: functional, cell-based
HepG2 = test: Cytotoxicity against human HepG2 cells assessed as inhibition of cell growth incubated for 72 hrs by CellTiter-Glo luminescence assay; type: functional, cell-based; conditions: HepG2, 72 h
[11] = Cytotoxicity against HEK293 cells assessed as inhibition of cell growth incubated for 72 hrs by CellTiter-Glo luminescence assay; type: toxicity, cell-based; conditions: human
[12] = Stability in mouse plasma assessed as half-life measured after 24 hrs by UPLC-MS analysis; type: ADME, cell-free
[13] = Stability in rat plasma assessed as half-life measured after 24 hrs by UPLC-MS analysis; type: ADME, cell-free
[14] = Stability in human plasma assessed as half-life measured after 24 hrs by UPLC-MS analysis; type: ADME, cell-free
[15] = Protein binding in mouse plasma at 20 uM incubated for 18 hrs by UPLC-MS analysis; type: ADME, cell-free; conditions: read-out: PPB (converted)
[16] = Protein binding in rat plasma at 20 uM incubated for 18 hrs by UPLC-MS analysis; type: ADME, cell-free; conditions: read-out: PPB (converted)
[17] = Protein binding in human plasma at 20 uM incubated for 18 hrs by UPLC-MS analysis; type: ADME, cell-free; conditions: read-out: PPB (converted)
[18] = Permeability of compound at pH 7.4 incubated for 30 mins by PAMPA-GIT assay; type: ADME; conditions: read-out: permeability
[19] = Efflux ratio of apparent permeability from basolateral to apical side over apical to basolateral side in human Caco-2 cells incubated for 2 hrs by UPLC/MS analysis; type: ADME, cell-based
[20] = Stability of compound in PBS at pH 7.4 assessed as half-life measured after 48 hrs by UPLC-MS analysis; type: physicochemical
[21] = Stability of compound in PBS at pH 5 assessed as half-life measured after 48 hrs by UPLC-MS analysis; type: physicochemical
[22] = Stability of compound in PBS at pH 3 assessed as half-life measured after 48 hrs by UPLC-MS analysis; type: physicochemical
[23] = Stability of compound in SGF assessed as half-life measured after 24 hrs by UPLC-MS analysis; type: ADME
[24] = Cmax in C57BL/6 mouse at 50 mg/kg, po measured after 144 hrs by LC-MS/MS analysis; type: ADME, organism-based; conditions: in vivo
[25] = Tmax in C57BL/6 mouse at 50 mg/kg, po measured after 144 hrs by LC-MS/MS analysis; type: ADME, organism-based; conditions: in vivo
[26] = AUC in C57BL/6 mouse at 50 mg/kg, po measured after 144 hrs by LC-MS/MS analysis; type: ADME, organism-based; conditions: in vivo
[27] = Elimination half-life in C57BL/6 mouse at 50 mg/kg, po measured after 144 hrs by LC-MS/MS analysis; type: ADME, organism-based; conditions: in vivo, read-out: beta t1/2 (converted)
[28] = Drug concentration in C57BL/6 mouse brain at 50 mg/kg, po measured after 144 hrs by LC-MS/MS analysis; type: ADME, organism-based; conditions: read-out: Ct
[29] = Clearance in C57BL/6 mouse at 50 mg/kg, po measured after 144 hrs by LC-MS/MS analysis; type: ADME, organism-based; conditions: in vivo
[30] = Cmax in Sprague-Dawley rat at 6 mg/kg, iv measured after 45.3 hrs by LC/MS analysis; type: ADME, organism-based; conditions: in vivo
[31] = Oral bioavailability in Sprague-Dawley rat at 50 mg/kg measured after 45.3 hrs by LC/MS analysis; type: ADME, organism-based; conditions: in vivo
[32] = Toxicity in Sprague-Dawley rat at 50 mg/kg, po measured after 45.3 hrs; type: organism-based; conditions: in vivo
[33] = tested on: Trypanosoma brucei rhodesiense; test: Antitrypanosomal activity against Trypanosoma brucei rhodesiense STIB900 infected in NMRI mouse model assessed as survival at 50 mg/kg, po pre-infected for 3 days followed by compound administration for 4 days and measured 60 days post infection (reference value: 7 day); type: functional; conditions: time 57 day
Trypanosoma congolense [34] = test: Antitrypanosomal activity against Trypanosoma congolense STIB 736/IL-1180 infected in NMRI mouse model assessed as survival at 50 mg/kg, ip administrated […] starting from day 7 to day 10 post infection (reference value: 11 day); type: functional
[35] = tested on: Trypanosoma brucei brucei; test: Antitrypanosomal activity against Trypanosoma brucei brucei 427 assessed as reduction in parasitemia in presence of fetal bovine serum; type: functional, organism-based
[36] = tested on: Trypanosoma brucei brucei; test: Trypanocidal activity against Trypanosoma brucei brucei 427 assessed as reduction in parasitemia at 8 uM incubated for 4 days by clonal dilution based CellTiter-Glo assay; type: functional, organism-based; conditions: time 4.0 day
[37] = tested on: Trypanosoma brucei brucei; test: Trypanocidal activity against Trypanosoma brucei brucei 427 assessed as reduction in parasitemia at 0.1 to 1.5 uM incubated for 4 days in presence of nifurtimox by CellTiter-Glo assay; type: functional, organism-based; conditions: dose 0.1-1.5 µM, time 4.0 day

SMILES: Cc1ccc(-c2nc3ccccc3s2)cc1NC(=O)c1cc([N+](=O)[O-])c(N2CCN(C)CC2)cc1Cl
- pEC50 [1]: 9.00
- EC50 at 72 h [2]: > 25000 nM
- half-life at 20 µM [3]: > 4 h
- solubility at 18 h [4]: ≤ 0.3 µM
- CLint scaled at 20 µM [5]: < 14 mL/min/kg
- half-life at 20 µM [6]: > 4 h
- CLint scaled at 20 µM [7]: < 12 mL/min/kg
- half-life at 20 µM [8]: > 4 h
- CLint scaled at 20 µM [9]: < 6 mL/min/kg
- pEC50 (Trypanosoma congolense [10]): 8.52
- pEC50 (Trypanosoma vivax): 8.22
- pEC50 (Raji): < 4.60
- pEC50 (HepG2): < 4.60
- EC50 at 72 h [11]: > 25000 nM
- half-life [12]: > 24 h
- half-life [13]: > 24 h
- half-life [14]: > 24 h
- fraction unbound at 18 h, 20 µM [15]: 0.009
- fraction unbound at 18 h, 20 µM [16]: 0.007
- fraction unbound at 18 h, 20 µM [17]: 0.002
- Papp at 0.5 h [18]: 237 ×10⁻⁶ cm/s
- efflux ratio at 2 h [19]: 1.92
- half-life [20]: 5.7 h
- half-life [21]: > 24 h
- half-life [22]: > 24 h
- half-life [23]: > 24 h
- Cmax [24]: 6.5 µM
- Tmax [25]: 4 h
- AUC at 144 h [26]: 83 µM·h
- half-life [27]: 7 h
- concentration at 144 h [28]: 8 µM
- CL/F [29]: 0.357 mL/min
- Cmax [30]: > 10 µM
- bioavailability [31]: 14%
- Activity [32]: Non-Toxic
- Survival [33]: 14 days
- Survival (Trypanosoma congolense [34]): 21 days
- Activity [35]: Active
- Activity [36]: inactive
- Activity [37]: Active
